Columns and labels:
[1] = test system: IL-17 production by CD4 T cells; assay: Human Th17 Assay; type: cell-based; settings: human CD4+ T cells under Th17 differentiation, 3 days, IL-17 in supernatant
From the text: The human Th17 assay tests the effect of RORγt modulatory compounds on IL-17 production by CD4 T cells under conditions which favor Th17 differentiation.
Total CD4^+ T cells were isolated from the peripheral blood mononuclear cells (PBMC) of healthy donors using a CD4^+ T cell isolation kit II, following the manufacturer's instructions (Miltenyi Biotec). Cells were resuspended in a medium of RPMI-1640 supplemented with 10% fetal bovine serum, penicillin, streptomycin, glutamate, and β-mercaptoethanol and were added to 96-well plates at 1.5×10^5 per 100 μL per well. 50 μL of compound at titrated concentrations in DMSO were added into each well at final DMSO concentration at 0.2%. Cells were incubated for 1 hour, then 50 μL of Th17 cell differentiation medium was added to each well. […] Supernatants were collected and the accumulated IL-17 in culture was measured by using MULTI-SPOT® Cytokine Plate following manufacture's instruction (Meso Scale Discovery). The plate was read using Sector Imager 6000, and IL-17 concentration was extrapolated from the standard curve. The IC50s were determined by GraphPad.

[2] = target: T1, human RORγt ligand binding domain (RORγt LBD) (Homo sapiens, UniProt P51449); assay: RORγt ThermoFluor assay (thermal shift binding affinity); settings: 0.065 mg/mL RORγt, pH 7.0; estimated from concentration response curves
T1 construct: His-tag (N); TurboTEV protease cleavage site (ENLYFQG) (N); made in house; host or cells: E. coli (pHIS1, modified pET vector)
T1 sequence (P51449 with tags, fused parts or gaps): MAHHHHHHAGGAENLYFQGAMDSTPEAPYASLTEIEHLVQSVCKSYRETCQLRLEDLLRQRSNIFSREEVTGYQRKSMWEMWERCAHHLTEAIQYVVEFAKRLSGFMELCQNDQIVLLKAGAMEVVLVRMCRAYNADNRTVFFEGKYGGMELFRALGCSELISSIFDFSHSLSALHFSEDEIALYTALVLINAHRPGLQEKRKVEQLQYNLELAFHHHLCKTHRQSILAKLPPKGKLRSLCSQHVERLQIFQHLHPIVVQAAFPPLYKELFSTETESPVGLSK
Protocol: This approach is applicable to a wide variety of systems, and rigorous in theoretical interpretation through quantitation of equilibrium binding constants (KD).
The shift in the melting point described as a ΔTm is proportional to the concentration and affinity of the ligand. The compound potency may be compared as a rank order of either ΔTm values at a single compound concentration or in terms of KD values, estimated from concentration response curves.
ThermoFluor® experiments were carried out using instruments owned by Janssen Research and Discovery, L.L.C. through its acquisition of 3-Dimensional Pharmaceuticals, Inc. 1,8-ANS (Invitrogen) was used as a fluorescent dye. […]
Fluorescence was measured by continuous illumination with UV light (Hamamatsu LC6) supplied via fiber optic and filtered through a band-pass filter (380-400 nm; >6 OD cutoff). Fluorescence emission of the entire 384-well plate was detected by measuring light intensity using a CCD camera (Sensys, Roper Scientific) filtered to detect 500±25 nm, resulting in simultaneous and independent readings of all 384 wells. Images were collected at each temperature, and the sum of the pixel intensity in a given area of the assay plate was recorded versus temperature. […]

[3] = target: T2, human RORγt LBD (Homo sapiens, UniProt P51449); assay: RORγt (LBD) Reporter Assay (GAL4 luciferase, HEK293T); type: cell-based; settings: HEK293T cells; for IC50: 24 hours with compound
T2 construct: expressed in transfected cells; host or cells: HEK293T
T2 sequence (P51449 258-518): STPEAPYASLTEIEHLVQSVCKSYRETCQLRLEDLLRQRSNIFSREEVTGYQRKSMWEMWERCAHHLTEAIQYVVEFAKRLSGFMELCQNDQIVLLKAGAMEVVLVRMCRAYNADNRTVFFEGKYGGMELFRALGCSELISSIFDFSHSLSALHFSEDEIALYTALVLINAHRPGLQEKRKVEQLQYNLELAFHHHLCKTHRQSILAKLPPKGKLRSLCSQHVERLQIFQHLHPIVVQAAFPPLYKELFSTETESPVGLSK
Protocol: Compounds were assessed for RORgt functional modulation using either the RORgt ligand binding domain (LBD) reporter assay, or the RORgt full-length (FL) reporter assay.
A reporter assay was used to test functional activity of RORγt modulatory compounds on transcriptional activation driven by the RORγt LBD. Cells used in the assay were co-transfected with two constructs. The first construct, pBIND-RORγt LBD, contained the wild type human RORγt LBD fused to the DNA binding domain of the GAL4 protein. The second construct, pGL4.31 (Promega Cat no. C935A), contained multiple GAL4 responsive DNA elements upstream of firefly luciferase. […] The mutant construct was called pBIND-RORγt-AF2.
The pBIND vector contains the GAL4 DNA Binding Domain (GAL4 DBD) and the renilla luciferase gene under control of the SV40 promoter. Renilla luciferase expression serves as a control for transfection efficiency and cell viability.
The reporter assay was performed by transiently transfecting HEK293T cells with 5 μg of pBIND-RORγt LBD or pBIND-RORγt LBD-AF2 and 5 μg pGL4.31 (Promega Cat no. C935A) using Fugene 6 (Invitrogen Cat no. E2691) at a 1:6 ratio of DNA: Fugene 6 in a T-75 flask in which cells were at least 80% confluent. Twenty four hours after bulk transfection, cells were plated into 96-well plates at 50,000 cells/well in phenol-red free DMEM containing 5% Lipid Reduced FCS and Pen/Strep. Six hours after plating, cells were treated with compounds for 24 hours. Media was removed and cells were lysed with 50 μL 1× Glo Lysis Buffer (Promega). Dual Glo Luciferase Reagent (50 μL/well) was then added and firefly luciferase luminescence was read on an Envision after a ten minute incubation. Finally, Stop and Glo reagent (50 μL/well) was added and renilla luciferase luminescence was read on an Envision after a ten minute incubation. To calculate the effect of compounds on RORγt activity, the ratio of firefly to renilla luciferase was determined and plotted against compound concentration. Agonist compounds increase RORγt-driven luciferase expression, and antagonist or inverse agonist compounds decrease luciferase expression.

| Kd [2] [µM] | IC50 [3] [µM] | inhibition at 6 µM ([3]; HEK-293T, 6 μM compound) [%] | SMILES | IC50 [1] [µM] |
| --- | --- | --- | --- | --- |
| 0.18 | > 6 | 31 | COc1nc2ccc(C(O)c3cnc(C)n3C)cc2c(Cl)c1Cc1ccc(F)cc1 (single isomer, unassigned) [Example 8b] |  |
|  | > 6 |  | COc1nc2ccc(C(O)c3cnc(C)n3C)cc2c(Cl)c1Cc1ccc(F)cc1 (centres unmarked) [Example 8a] |  |
| 0.095 | > 6 |  | COc1nc2ccc(C(O)c3cnc(C)n3C)cc2c(Cl)c1Cc1ccc(F)cc1 (single isomer, unassigned) [Example 8c] |  |

Further lines, the molecule ahead of its results:

| SMILES | Kd [2] [µM] | IC50 [3] [µM] | inhibition at 6 µM ([3]; HEK-293T, 6 μM compound) [%] | IC50 [1] [µM] |
| --- | --- | --- | --- | --- |
| COc1nc2ccc(C(O)c3cnnn3C)cc2c(Cl)c1Cc1ccc(-n2cccn2)cc1 (single isomer, unassigned) [Example 5b, (3-(4-(1H-Pyrazol-1-yl)benzyl)-4-chloro-2-methoxyquinolin-6-yl)(1-methyl-1H-1,2,3-triazol-5-yl)methanol] |  |  |  | 1.5 |
| COc1nc2ccc(C(O)c3cnnn3C)cc2c(Cl)c1Cc1ccc(-n2cccn2)cc1 (single isomer, unassigned) [Example 5c, (3-(4-(1H-Pyrazol-1-yl)benzyl)-4-chloro-2-methoxyquinolin-6-yl)(1-methyl-1H-1,2,3-triazol-5-yl)methanol] |  |  |  | 0.61 |

Reference: patent US9221804B2, “Secondary alcohol quinolinyl modulators of RORγt” (Janssen Pharmaceutica NV, priority 2013, dated 2015)
